Assay results published in patent publication US10800792B2, “Inhibitors of Bruton's tyrosine kinase and method of their use” (JANSSEN PHARMACEUTICA NV, priority 2015, dated 2020).

Target: unphosphorylated-BTK kinase domain (UP-BTK), GST-tagged human BTK (389-659aa) (Homo sapiens (Human), UniProt Q06187)
Experiment: BTK kinase Lanthascreen binding assay
Details: Lanthascreen tracer competition, 60 minutes incubation; pIC50 = negative log of the IC50 in molar
Procedure, shortened: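 A fluorescent tracer is bound to unphosphorylated BTK; test compound is added to compete it off; the Lanthascreen signal is read and IC50 is fitted, then reported as its negative log in molar.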

Sequence of unphosphorylated-BTK kinase domain (UP-BTK), GST-tagged human BTK (389-659aa) (Q06187 389-659): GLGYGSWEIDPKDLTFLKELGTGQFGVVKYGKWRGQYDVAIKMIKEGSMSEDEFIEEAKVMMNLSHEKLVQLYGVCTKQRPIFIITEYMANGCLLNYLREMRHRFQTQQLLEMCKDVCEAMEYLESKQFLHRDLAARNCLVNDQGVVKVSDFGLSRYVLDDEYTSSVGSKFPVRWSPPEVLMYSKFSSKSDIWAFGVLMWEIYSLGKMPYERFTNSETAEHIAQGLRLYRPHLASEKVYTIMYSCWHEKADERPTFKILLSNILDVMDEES

Compound	BTK_I_binding pIC50
Cc1cc(Oc2ccccc2)ccc1N1C(=O)Nc2c(NC(=O)C3CCCN(C(=O)/C(C#N)=C/C4CC4)C3)sc3nccc1c23 (stereo not shown) [Example 801, (E)-1-(2-Cyano-3-cyclopropylacryloyl)-N-(5-(2-methyl-4-phenoxyphenyl)-4-oxo-4,5-dihydro-3H-1-thia-3,5,8-triazaacenaphthylen-2-yl)piperidine-3-carboxamide]	6.2
C=CC(=O)N1CCC[C@@H](NC(=O)c2sc3nccc4c3c2NC(=O)N4c2ccc(OCCOC(C)C)cc2C)C1 [Example 696, (R)—N-(1-Acryloylpiperidin-3-yl)-5-(4-(2-isopropoxyethoxy)-2-methylphenyl)-4-oxo-4,5-dihydro-3H-1-thia-3,5,8-triazaacenaphthylene-2-carboxamide]	6.9
COc1ccc(N2C(=O)Nc3c(C(=O)NC4CCCN(C(=O)/C(C#N)=C/C5CC5)C4)sc4nccc2c34)c(C)c1 (stereo not shown) [Example 878, (E)-N-(1-(2-Cyano-3-cyclopropylacryloyl)piperidin-3-yl)-5-(4-methoxy-2-methylphenyl)-4-oxo-4,5-dihydro-3H-1-thia-3,5,8-triazaacenaphthylene-2-carboxamide]	7.1
Cc1cc(Oc2ccccc2)ccc1N1C(=O)Nc2c(NC(=O)C3CCCN(C#N)C3)sc3nccc1c23 (stereo not shown) [Example 802, 1-Cyano-N-(5-(2-methyl-4-phenoxyphenyl)-4-oxo-4,5-dihydro-3H-1-thia-3,5,8-triazaacenaphthylen-2-yl)piperidine-3-carboxamide]	6.1
Cc1nc(Oc2ccccc2)ccc1N1C(=O)Nc2c(C(=O)N[C@@H]3CCNC3)sc3nccc1c23 (single isomer, unassigned) [Example 717, (R)-5-(*S)-(2-Methyl-6-phenoxypyridin-3-yl)-4-oxo-N-(pyrrolidin-3-yl)-4,5-dihydro-3H-1-thia-3,5,8-triazaacenaphthylene-2-carboxamide]	6.4
C=CC(=O)N1CC[C@@H](NC(=O)c2sc3nccc4c3c2NC(=O)N4c2ncc(Oc3ccccc3)cn2)C1 [Example 749, (R)—N-(1-Acryloylpyrrolidin-3-yl)-4-oxo-5-(5-phenoxypyrimidin-2-yl)-4,5-dihydro-3H-1-thia-3,5,8-triazaacenaphthylene-2-carboxamide]	7.3
C=CC(=O)N1CCC[C@@H](NC(=O)c2sc3nccc4c3c2NC(=O)N4c2ccc(OC3CCC3)nc2C)C1 (single isomer, unassigned) [Example 736, (R)—N-(1-Acryloylpiperidin-3-yl)-5-(*R)-(6-cyclobutoxy-2-methylpyridin-3-yl)-4-oxo-4,5-dihydro-3H-1-thia-3,5,8-triazaacenaphthylene-2-carboxamide]	<6
COc1ccc(N2C(=O)Nc3c(C(=O)N[C@@H]4CCCN(C(=O)/C(C#N)=C/C5CC5)C4)sc4nccc2c34)c(C)c1 [Example 862, (R,E)-N-(1-(2-Cyano-3-cyclopropylacryloyl)piperidin-3-yl)-5-(4-methoxy-2-methylphenyl)-4-oxo-4,5-dihydro-3H-1-thia-3,5,8-triazaacenaphthylene-2-carboxamide]	7.3

Same assay, conditions: Lanthascreen tracer competition, 60 minutes incubation; pIC50 = negative log of the IC50 in molar; read-out: BTK_I_binding pIC50 (converted)

Compound	IC50 [µM]
Cc1cc(Oc2ccccc2)ccc1N1C(=O)Nc2c(NC(=O)C3CCCN(C(=O)/C(C#N)=C/C(C)(C)C)C3)sc3nccc1c23 (stereo not shown) [Example 816, (E)-1-(2-Cyano-4,4-dimethylpent-2-enoyl)-N-(5-(2-methyl-4-phenoxyphenyl)-4-oxo-4,5-dihydro-3H-1-thia-3,5,8-triazaacenaphthylen-2-yl)piperidine-3-carboxamide]	1
Cc1cc(Oc2ccccc2)ccc1N1C(=O)Nc2c(C(=O)N[C@@H]3CCCN(C#N)C3)sc3nccc1c23 [Example 852, (R)—N-(1-Cyanopiperidin-3-yl)-5-(2-methyl-4-phenoxyphenyl)-4-oxo-4,5-dihydro-3H-1-thia-3,5,8-triazaacenaphthylene-2-carboxamide]	0.0316

Same assay, conditions: pIC50 = negative log of the IC50 in molar; 60 minutes incubation, 50 nM Tracer 236

Compound	BTK_I_binding pIC50
COCCC(=O)N1CC(NC(=O)c2sc3nccc4c3c2NC(=O)N4c2ccc(Oc3ccccc3)cc2C)C1 [Example 246, N-(1-(3-Methoxypropanoyl)azetidin-3-yl)-5-(2-methyl-4-phenoxyphenyl)-4-oxo-4,5-dihydro-3H-1-thia-3,5,8-triazaacenaphthylene-2-carboxamide]	6.5
CN1CCC[C@@H](NC(=O)c2sc3nccc4c3c2NC(=O)N4c2ccc(Oc3ccccc3)cc2)C1 [Example 182, (R)—N-(1-Methylpiperidin-3-yl)-4-oxo-5-(4-phenoxyphenyl)-4,5-dihydro-3H-1-thia-3,5,8-triazaacenaphthylene-2-carboxamide]	6.7
Cc1cc(Oc2ccccc2)ccc1N1C(=O)Nc2c(C(=O)N[C@@H]3CCN(C(C)C)C3)sc3nccc1c23 (single isomer, unassigned) [Example 93, (R)—N-(1-Isopropylpyrrolidin-3-yl)-5-(*S)-(2-methyl-4-phenoxyphenyl)-4-oxo-4,5-dihydro-3H-1-thia-3,5,8-triazaacenaphthylene-2-carboxamide]	7.1

Same assay, conditions: pIC50 = negative log of the IC50 in molar; 60 minutes incubation, 50 nM Tracer 236; read-out: BTK_I_binding pIC50 (converted)

Compound	IC50 [µM]
COc1ccc(N2C(=O)Nc3c(C(=O)N[C@@H]4CCCN(C(=O)C=[13CH2])C4)sc4nccc2c34)c(C)c1 [Example 110, (R)—N-(1-^13C-Acryloylpiperidin-3-yl)-5-(4-methoxy-2-methylphenyl)-4-oxo-4,5-dihydro-3H-1-thia-3,5,8-triazaacenaphthylene-2-carboxamide]	0.158

Same assay, conditions: unphosphorylated-BTK kinase domain, 50 nM Tracer 236, 60 minutes; pIC50 = negative log of the IC50 in molar

Compound	BTK_I_binding pIC50
Cc1cc(Oc2ccccc2)ccc1N1C(=O)Nc2c(C(=O)N[C@@H]3CCN(C(=O)/C=C/CN(C)C)C3)sc3nccc1c23 [Example 368, (R,E)-N-(1-(4-(Dimethylamino)but-2-enoyl)pyrrolidin-3-yl)-5-(2-methyl-4-phenoxyphenyl)-4-oxo-4,5-dihydro-3H-1-thia-3,5,8-triazaacenaphthylene-2-carboxamide]	7.6
O=C(N[C@@H]1CCCNC1)c1sc2nccc3c2c1NC(=O)N3c1ccc(C(F)(F)F)cc1 [Example 341, (R)-4-Oxo-N-(piperidin-3-yl)-5-(4-(trifluoromethyl)phenyl)-4,5-dihydro-3H-1-thia-3,5,8-triazaacenaphthylene-2-carboxamide]	5.2
Cc1cc(Oc2ccccc2)c(F)cc1N1C(=O)Nc2c(C(=O)N[C@@H]3CCCOC3)sc3nccc1c23 [Example 305, (R)-5-(5-Fluoro-2-methyl-4-phenoxyphenyl)-4-oxo-N-(tetrahydro-2H-pyran-3-yl)-4,5-dihydro-3H-1-thia-3,5,8-triazaacenaphthylene-2-carboxamide]	6.0
C=CC(=O)N1CC[C@@H](C(=O)Nc2sc3nccc4c3c2NC(=O)N4c2ccc(Oc3ccccc3)cc2C)C1 [Example 545, (R)-1-Acryloyl-N-(5-(2-methyl-4-phenoxyphenyl)-4-oxo-4,5-dihydro-3H-1-thia-3,5,8-triazaacenaphthylen-2-yl)pyrrolidine-3-carboxamide]	6.9
Cc1cnc2sc(C(=O)N[C@@H]3CCCNC3)c3c2c1N(c1ccc(Oc2ccccc2)cc1)C(=O)N3 [Example 328, (R)-6-Methyl-4-oxo-5-(4-phenoxyphenyl)-N-(piperidin-3-yl)-4,5-dihydro-3H-1-thia-3,5,8-triazaacenaphthylene-2-carboxamide]	5.7
Cc1cc(Oc2ccccc2)ccc1N1C(=O)Nc2c(C(=O)NCCN3CCOC[C@@H]3C)sc3nccc1c23 [Example 291, (S)-5-(2-Methyl-4-phenoxyphenyl)-N-(2-(3-methylmorpholino)ethyl)-4-oxo-4,5-dihydro-3H-1-thia-3,5,8-triazaacenaphthylene-2-carboxamide]	6.1
Cc1cc(Oc2ccccc2)ccc1N1C(=O)Nc2c(C(=O)N(C)[C@@H]3CCN(C)C3)sc3nccc1c23 [Example 338, (R)—N-Methyl-5-(2-methyl-4-phenoxyphenyl)-N-(1-methylpyrrolidin-3-yl)-4-oxo-4,5-dihydro-3H-1-thia-3,5,8-triazaacenaphthylene-2-carboxamide]	5.4

Same assay, conditions: unphosphorylated-BTK kinase domain, 50 nM Tracer 236, 60 minutes; pIC50 = negative log of the IC50 in molar; read-out: BTK_I_binding pIC50 (converted)

Compound	IC50 [µM]
O=C(N[C@@H]1CCCNC1)c1sc2nccc3c2c1NC(=O)N3c1ccc(OC(F)(F)F)cc1 [Example 415, (R)-4-Oxo-N-(piperidin-3-yl)-5-(4-(trifluoromethoxy)phenyl)-4,5-dihydro-3H-1-thia-3,5,8-triazaacenaphthylene-2-carboxamide]	6.31

Same assay, conditions: unphosphorylated-BTK kinase domain, 60 minutes incubation, 50 nM Tracer 236; pIC50 = negative log of the IC50 in molar

Compound	BTK_I_binding pIC50
O=C(N[C@H]1CCN(Cc2ccccc2)C1)c1sc2nccc3c2c1NC(=O)N3c1ccc(Oc2ccccc2)cc1 [Example 945, (S)—N-(1-Benzylpyrrolidin-3-yl)-4-oxo-5-(4-phenoxyphenyl)-4,5-dihydro-3H-1-thia-3,5,8-triazaacenaphthylene-2-carboxamide]	5.5
N#C/C(=C\C1CC1)C(=O)N1CCC[C@H](NC(=O)c2sc3nccc4c3c2NC(=O)N4c2cccc(Oc3ccccc3)c2)C1 [Example 939, (S,E)-N-(1-(2-Cyano-3-cyclopropylacryloyl)piperidin-3-yl)-4-oxo-5-(3-phenoxyphenyl)-4,5-dihydro-3H-1-thia-3,5,8-triazaacenaphthylene-2-carboxamide]	6.0
O=C(N[C@@H]1CCN(Cc2ccccc2)C1)c1sc2nccc3c2c1NC(=O)N3c1ccc(Oc2ccccc2)cc1 [Example 925, (R)—N-(1-Benzylpyrrolidin-3-yl)-4-oxo-5-(4-phenoxyphenyl)-4,5-dihydro-3H-1-thia-3,5,8-triazaacenaphthylene-2-carboxamide]	6.3
